Experimental data reported in patent US6479435B1, “Diaryl ethers and processes for their preparation and herbicidal and desiccant compositions containing them” (ISK Americas Incorporated, priority 1997, dated 2002).

How the values were obtained:
Assay type in all cases: in vivo
[1] = test system: field corn (Zea mays L., var. Dekalb 535, CORN); assay: Pre-emerge greenhouse test, crop damage rating; details: 14 days after application, rating scale 0-100
How it was run: (§1)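 Seeds sown in sandy loam mix one day before track-sprayer application of compounds in acetone at 125–1000 g ai/ha (187 l/ha), then surface-watered to incorporate and bottom-watered. Visual rating 14 days after application on a 0–100 scale (0 = no damage, 100 = all plants dead).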

[2] = test system: upland rice (Oryza sp., var.Tebonnet, RICE); assay: Pre-emerge greenhouse test, crop damage rating; details: 14 days after application, rating scale 0-100
How it was run: as §1

[3] = test system: field corn (Zea mays L., var. Dekalb 535, CORN); assay: Post-emerge greenhouse test, crop damage rating; details: 14 days after application, scale 0-100
How it was run: (§2)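 Compounds in acetone with 0.25% v/v non-ionic surfactant were track-sprayed at 187 l/ha over plants at the 2-3 leaf stage, at 63 to 1000 g ai/ha. Pots were bottom-watered. Injury was scored visually 14 days later on a 0-100 scale, where 0 is no damage and 100 is complete plant death.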

[4] = test system: upland rice (Oryza sp., var.Tebonnet, RICE); assay: Post-emerge greenhouse test, crop damage rating; details: 14 days after application, scale 0-100
How it was run: as §2

[5] = test system: large crabgrass (Digitaria sanguinalis, DIGSA); assay: Pre-emerge greenhouse herbicide test, phytotoxicity rating; details: 14 days after application, rating scale 0-100
How it was run: as §1

[6] = test system: Johnsongrass (Sorghum halepense, SORHA); assay: as above; details: 14 days after application, rating scale 0-100
How it was run: as §1

[7] = test system: lambsquarters (Chenopodium album, CHEAL); assay: as above; details: 14 days after application, rating scale 0-100
How it was run: as §1

[8] = test system: sicklepod (Cassia obtusifolia, CASOB); assay: as above; details: 14 days after application, rating scale 0-100
How it was run: as §1

[9] = test system: velvetleaf (Abutilon theophrasti, ABUTH); assay: as above; details: 14 days after application, rating scale 0-100
How it was run: as §1

[10] = test system: common ragweed (Ambrosia artemisiifolia L., AMBEL); assay: as above; details: 14 days after application, rating scale 0-100
How it was run: as §1

[11] = test system: redroot pigweed (Amaranthus retroflexus, AMARE); assay: as above; details: 14 days after application, rating scale 0-100
How it was run: as §1

[12] = test system: green foxtail (Setaria viridis, SETVI); assay: as above; details: 14 days after application, rating scale 0-100
How it was run: as §1

[13] = test system: ivyleaf morningglory (Ipomoea hederacea, IPOHE); assay: as above; details: 14 days after application, rating scale 0-100
How it was run: as §1

[14] = test system: barnyardgrass (Echinochloa crusgalli, ECHCG); assay: as above; details: 14 days after application, rating scale 0-100
How it was run: as §1

[15] = test system: large crabgrass (Digitaria sanguinalis, DIGSA); assay: Post-emerge greenhouse herbicide test, phytotoxicity rating; details: 14 days after application, scale 0-100
How it was run: as §2

[16] = test system: Johnsongrass (Sorghum halepense, SORHA); assay: as above; details: 14 days after application, scale 0-100
How it was run: as §2

[17] = test system: lambsquarters (Chenopodium album, CHEAL); assay: as above; details: 14 days after application, scale 0-100
How it was run: as §2

[18] = test system: sicklepod (Cassia obtusifolia, CASOB); assay: as above; details: 14 days after application, scale 0-100
How it was run: as §2

[19] = test system: velvetleaf (Abutilon theophrasti, ABUTH); assay: as above; details: 14 days after application, scale 0-100
How it was run: as §2

[20] = test system: redroot pigweed (Amaranthus retroflexus, AMARE); assay: as above; details: 14 days after application, scale 0-100
How it was run: as §2

[21] = test system: green foxtail (Setaria viridis, SETVI); assay: as above; details: 14 days after application, scale 0-100
How it was run: as §2

[22] = test system: ivyleaf morningglory (Ipomoea hederacea, IPOHE); assay: as above; details: 14 days after application, scale 0-100
How it was run: as §2

[23] = test system: barnyardgrass (Echinochloa crusgalli, ECHCG); assay: as above; details: 14 days after application, scale 0-100
How it was run: as §2

[24] = test system: soybean (Glycine max L., var. Pella 86, SOY); assay: Post-emerge greenhouse test, crop damage rating; parameters: key to crop damage rating SOY: 0-100 scale: 0 = no damage, 100 = complete death of all plants; details: 14 days after application, scale 0-100
How it was run: as §2

[25] = test system: soybean (Glycine max L., var. Pella 86, SOY); assay: Pre-emerge greenhouse test, crop damage rating; parameters: key to SOY crop damage rating: 0 = no damage, 100 = complete death of all plants; details: 14 days after application, rating scale 0-100
How it was run: as §1

[26] = test system: common ragweed (Ambrosia artemisiifolia L., AMBEL); assay: Post-emerge greenhouse herbicide test, phytotoxicity rating; details: 14 days after application, scale 0-100
How it was run: as §2

O=c1n(-c2cc(Oc3nc(F)c(F)cc3F)c(Cl)cc2F)c(=S)n2n1CCCC2 [Compound 8-28]
CORN crop damage rating ([1]; Rate 125 g al/ha): 15
CORN crop damage rating ([1]; Rate 500 g al/ha): 15
RICE crop damage rating ([2]; Rate 125 g al/ha): 25
RICE crop damage rating ([2]; Rate 500 g al/ha): 70
crop damage rating CORN ([3]; rate 63 g ai/ha): 10
crop damage rating CORN ([3]; rate 500 g ai/ha): 20
crop damage rating RICE ([4]; rate 63 g ai/ha): 10
crop damage rating RICE ([4]; rate 500 g ai/ha): 40
DIGSA phytotoxicity rating ([5]; Rate 125 g al/ha): 100
DIGSA phytotoxicity rating ([5]; Rate 500 g al/ha): 100
SORHA phytotoxicity rating ([6]; Rate 125 g al/ha): 90
SORHA phytotoxicity rating ([6]; Rate 500 g al/ha): 95
CHEAL phytotoxicity rating ([7]; Rate 125 g al/ha): 100
CHEAL phytotoxicity rating ([7]; Rate 500 g al/ha): 100
CASOB phytotoxicity rating ([8]; Rate 125 g al/ha): 100
CASOB phytotoxicity rating ([8]; Rate 500 g al/ha): 90
ABUTH phytotoxicity rating ([9]; Rate 125 g al/ha): 100
ABUTH phytotoxicity rating ([9]; Rate 500 g al/ha): 100
AMBEL phytotoxicity rating ([10]; Rate 125 g al/ha): 80
AMBEL phytotoxicity rating ([10]; Rate 500 g al/ha): 100
AMARE phytotoxicity rating ([11]; Rate 125 g al/ha): 100
AMARE phytotoxicity rating ([11]; Rate 500 g al/ha): 100
SETVI phytotoxicity rating ([12]; Rate 125 g al/ha): 100
SETVI phytotoxicity rating ([12]; Rate 500 g al/ha): 100
IPOHE phytotoxicity rating ([13]; Rate 125 g al/ha): 30
IPOHE phytotoxicity rating ([13]; Rate 500 g al/ha): 40
ECHCG phytotoxicity rating ([14]; Rate 125 g al/ha): 60
ECHCG phytotoxicity rating ([14]; Rate 500 g al/ha): 95
phytotoxicity rating DIGSA ([15]; rate 63 g ai/ha): 20
phytotoxicity rating DIGSA ([15]; rate 500 g ai/ha): 30
phytotoxicity rating SORHA ([16]; rate 63 g ai/ha): 40
phytotoxicity rating SORHA ([16]; rate 500 g ai/ha): 60
phytotoxicity rating CHEAL ([17]; rate 63 g ai/ha): 90
phytotoxicity rating CHEAL ([17]; rate 500 g ai/ha): 100
phytotoxicity rating CASOB ([18]; rate 63 g ai/ha): 50
phytotoxicity rating CASOB ([18]; rate 500 g ai/ha): 100
phytotoxicity rating ABUTH ([19]; rate 63 g ai/ha): 100
phytotoxicity rating ABUTH ([19]; rate 500 g ai/ha): 100
phytotoxicity rating AMARE ([20]; rate 63 g ai/ha): 100
phytotoxicity rating AMARE ([20]; rate 500 g ai/ha): 100
phytotoxicity rating SETVI ([21]; rate 63 g ai/ha): 30
phytotoxicity rating SETVI ([21]; rate 500 g ai/ha): 90
phytotoxicity rating IPOHE ([22]; rate 63 g ai/ha): 90
phytotoxicity rating IPOHE ([22]; rate 500 g ai/ha): 95
phytotoxicity rating ECHCG ([23]; rate 63 g ai/ha): 10
phytotoxicity rating ECHCG ([23]; rate 500 g ai/ha): 80
crop damage rating SOY ([24]; rate 63 g ai/ha): 50
crop damage rating SOY ([24]; rate 500 g ai/ha): 90
SOY crop damage rating ([25]; Rate 125 g al/ha): 10
SOY crop damage rating ([25]; Rate 500 g al/ha): 10
phytotoxicity rating AMBEL ([26]; rate 63 g ai/ha): 50
phytotoxicity rating AMBEL ([26]; rate 500 g ai/ha): 90

O=c1n(-c2cc(Oc3nccc(C(F)(F)F)n3)c(Cl)cc2F)c(=S)n2n1CCCC2 [Compound 8-30]
CORN crop damage rating ([1]; Rate 125 g al/ha): 10
CORN crop damage rating ([1]; Rate 500 g al/ha): 20
RICE crop damage rating ([2]; Rate 125 g al/ha): 20
RICE crop damage rating ([2]; Rate 500 g al/ha): 90
crop damage rating CORN ([3]; rate 63 g ai/ha): 15
crop damage rating CORN ([3]; rate 500 g ai/ha): 40
crop damage rating RICE ([4]; rate 63 g ai/ha): 5
crop damage rating RICE ([4]; rate 500 g ai/ha): 80
DIGSA phytotoxicity rating ([5]; Rate 125 g al/ha): 70
DIGSA phytotoxicity rating ([5]; Rate 500 g al/ha): 100
SORHA phytotoxicity rating ([6]; Rate 125 g al/ha): 40
SORHA phytotoxicity rating ([6]; Rate 500 g al/ha): 99
CHEAL phytotoxicity rating ([7]; Rate 125 g al/ha): 100
CHEAL phytotoxicity rating ([7]; Rate 500 g al/ha): 100
CASOB phytotoxicity rating ([8]; Rate 125 g al/ha): 100
CASOB phytotoxicity rating ([8]; Rate 500 g al/ha): 100
ABUTH phytotoxicity rating ([9]; Rate 125 g al/ha): 100
ABUTH phytotoxicity rating ([9]; Rate 500 g al/ha): 100
AMBEL phytotoxicity rating ([10]; Rate 125 g al/ha): 100
AMBEL phytotoxicity rating ([10]; Rate 500 g al/ha): 99
AMARE phytotoxicity rating ([11]; Rate 125 g al/ha): 100
AMARE phytotoxicity rating ([11]; Rate 500 g al/ha): 100
SETVI phytotoxicity rating ([12]; Rate 125 g al/ha): 100
SETVI phytotoxicity rating ([12]; Rate 500 g al/ha): 100
IPOHE phytotoxicity rating ([13]; Rate 125 g al/ha): 100
IPOHE phytotoxicity rating ([13]; Rate 500 g al/ha): 90
ECHCG phytotoxicity rating ([14]; Rate 125 g al/ha): 40
ECHCG phytotoxicity rating ([14]; Rate 500 g al/ha): 99
phytotoxicity rating DIGSA ([15]; rate 63 g ai/ha): 0
phytotoxicity rating DIGSA ([15]; rate 500 g ai/ha): 10
phytotoxicity rating SORHA ([16]; rate 63 g ai/ha): 20
phytotoxicity rating SORHA ([16]; rate 500 g ai/ha): 95
phytotoxicity rating CHEAL ([17]; rate 63 g ai/ha): 95
phytotoxicity rating CHEAL ([17]; rate 500 g ai/ha): 100
phytotoxicity rating CASOB ([18]; rate 63 g ai/ha): 100
phytotoxicity rating CASOB ([18]; rate 500 g ai/ha): 100
phytotoxicity rating ABUTH ([19]; rate 63 g ai/ha): 100
phytotoxicity rating ABUTH ([19]; rate 500 g ai/ha): 100
phytotoxicity rating AMARE ([20]; rate 63 g ai/ha): 90
phytotoxicity rating AMARE ([20]; rate 500 g ai/ha): 100
phytotoxicity rating SETVI ([21]; rate 63 g ai/ha): 60
phytotoxicity rating SETVI ([21]; rate 500 g ai/ha): 95
phytotoxicity rating IPOHE ([22]; rate 63 g ai/ha): 100
phytotoxicity rating IPOHE ([22]; rate 500 g ai/ha): 100
phytotoxicity rating ECHCG ([23]; rate 63 g ai/ha): 10
phytotoxicity rating ECHCG ([23]; rate 500 g ai/ha): 40
crop damage rating SOY ([24]; rate 63 g ai/ha): 95
crop damage rating SOY ([24]; rate 500 g ai/ha): 100
SOY crop damage rating ([25]; Rate 125 g al/ha): 80
SOY crop damage rating ([25]; Rate 500 g al/ha): 80
phytotoxicity rating AMBEL ([26]; rate 63 g ai/ha): 90
phytotoxicity rating AMBEL ([26]; rate 500 g ai/ha): 99
